According to the NIST ThermoML archive (doi:10.1021/je100945u):

Conditions: Liquid, Vibrating tube method

CCn1cc[n+](C)c1.O=S(=O)([N-]S(=O)(=O)C(F)(F)F)C(F)(F)F
Conditions | mass density [kg/m3]
283.15 K, 101.33 kPa | 1533.48
283.19 K, 1750 kPa | 1533.9
283.19 K, 5136 kPa | 1536.34
283.19 K, 49993 kPa | 1565.54
283.19 K, 60272 kPa | 1571.51
283.19 K, 69996 kPa | 1577
283.19 K, 80287 kPa | 1582.65
283.19 K, 89994 kPa | 1587.84
283.2 K, 10046 kPa | 1539.78
283.2 K, 29957 kPa | 1553.14
283.2 K, 40033 kPa | 1559.47
283.21 K, 20030 kPa | 1546.57
283.21 K, 100034 kPa | 1593.02
293.14 K, 99755 kPa | 1584.89
293.15 K, 101.33 kPa | 1523.37
293.15 K, 10202 kPa | 1530.8
293.15 K, 89934 kPa | 1579.84
293.16 K, 20787 kPa | 1538.14
293.16 K, 59685 kPa | 1562.92
293.16 K, 69993 kPa | 1568.91
293.17 K, 1027 kPa | 1524.24
293.17 K, 4981 kPa | 1527.1
293.17 K, 29994 kPa | 1544.31
293.17 K, 49993 kPa | 1557.07
293.17 K, 79912 kPa | 1574.47
293.19 K, 39872 kPa | 1550.73
298.12 K, 19701 kPa | 1532.45
298.12 K, 29779 kPa | 1539.35
298.13 K, 39926 kPa | 1546.05
298.14 K, 1156 kPa | 1519.1
298.15 K, 101.33 kPa | 1518.34
298.15 K, 49997 kPa | 1552.45
298.17 K, 5194 kPa | 1522.08
298.18 K, 90001 kPa | 1575.41
298.18 K, 99950 kPa | 1580.52
298.19 K, 10066 kPa | 1525.62
298.19 K, 69997 kPa | 1564.42
298.19 K, 79938 kPa | 1570
298.2 K, 59613 kPa | 1558.32
313.15 K, 101.33 kPa | 1503.33
313.15 K, 10156 kPa | 1510.84
313.15 K, 29996 kPa | 1525.09
313.15 K, 39897 kPa | 1531.84
313.15 K, 49994 kPa | 1538.48
313.15 K, 60124 kPa | 1544.89
313.15 K, 69993 kPa | 1550.88
313.16 K, 1963 kPa | 1504.67
313.16 K, 19902 kPa | 1517.96
313.16 K, 80342 kPa | 1556.93
313.16 K, 89994 kPa | 1562.32
313.17 K, 5147 kPa | 1507.08
313.17 K, 100087 kPa | 1567.72
333.13 K, 80064 kPa | 1539.77
333.13 K, 89994 kPa | 1545.53
333.14 K, 69997 kPa | 1533.66
333.14 K, 99911 kPa | 1551
333.15 K, 101.33 kPa | 1483.53
333.15 K, 60111 kPa | 1527.39
333.16 K, 49997 kPa | 1520.69
333.17 K, 2359 kPa | 1485.34
333.17 K, 5331 kPa | 1487.73
333.17 K, 40159 kPa | 1513.9
333.18 K, 30001 kPa | 1506.61
333.19 K, 9791 kPa | 1491.26
333.19 K, 18829 kPa | 1498.27
353.15 K, 101.33 kPa | 1463.97
353.18 K, 2168 kPa | 1465.71
353.18 K, 5223 kPa | 1468.32
353.18 K, 69993 kPa | 1516.73
353.18 K, 80056 kPa | 1523.09
353.18 K, 90001 kPa | 1529.06
353.19 K, 9673 kPa | 1472.06
353.19 K, 20093 kPa | 1480.58
353.19 K, 29997 kPa | 1488.37
353.19 K, 39951 kPa | 1495.89
353.19 K, 49979 kPa | 1503.15
353.19 K, 60184 kPa | 1510.23
353.19 K, 99944 kPa | 1534.73
363.15 K, 101.33 kPa | 1454.28
373.12 K, 724 kPa | 1445.01
373.14 K, 4935 kPa | 1448.84
373.14 K, 60448 kPa | 1493.21
373.14 K, 69979 kPa | 1499.69
373.14 K, 79868 kPa | 1506.16
373.14 K, 89963 kPa | 1512.49
373.14 K, 99920 kPa | 1518.52
373.16 K, 30001 kPa | 1470.33
373.16 K, 39858 kPa | 1478.08
373.16 K, 49997 kPa | 1485.67
373.17 K, 10147 kPa | 1453.42
373.18 K, 19879 kPa | 1461.85
